Source: the supplement of paper PMC10883282
± gives the standard deviation of the averaged measurements.

System: SK-LMS-1
Experiment: relative viability vs DMSO control (72 h) (fraction); higher = more viable cells
Summary of the method: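 Sarcoma cell lines were grown in 384-well plates seeded toward 80–90% confluence and exposed 24 h later to serially diluted compound. After 72 h at 37 °C and 5% CO2, with 0.1% DMSO vehicle and a 5 µM positive control on the plates, ATPLite was read. Relative viability, given as percent growth averaged over up to triplicate wells, was rescaled so that 1 is full and 0 is none.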

Row | SMILES | relative viability (0.00017 µM) | relative viability (0.00051 µM) | relative viability (0.00152 µM) | relative viability (0.00457 µM) | relative viability (0.01372 µM) | relative viability (0.04115 µM) | relative viability (0.1235 µM) | relative viability (0.3704 µM) | relative viability (1.111 µM) | relative viability (3.333 µM) | relative viability (10 µM)
1 | Cc1cc(C)c(/C=C2\C(=O)Nc3ccccc32)[nH]1 [Semaxanib] | 0.927 ± 0.045 | 0.907 ± 0.044 | 0.897 ± 0.025 | 0.878 ± 0.033 | 0.897 ± 0.053 | 0.874 ± 0.039 | 0.872 ± 0.02 | 0.894 ± 0.018 | 0.905 ± 0.027 | 0.871 ± 0.033 | 0.811 ± 0.013
2 | O=C(Nc1cnn2ccc(N3CCC[C@@H]3c3cc(F)ccc3F)nc12)N1CC[C@H](O)C1 [Larotrectinib] | 1.12 ± 0.03 | 1.16 ± 0.051 | 1.13 ± 0.057 | 1.08 ± 0.015 | 1.07 ± 0.047 | 1.11 ± 0.025 | 1.11 ± 0.028 | 1.06 ± 0.026 | 1.08 ± 0.03 | 1.08 ± 0.032 | 1.071 ± 0.0057
3 | C=CC(=O)N1CCC[C@@H](n2nc(-c3ccc(Oc4ccccc4)cc3)c3c(N)ncnc32)C1 [Ibrutinib] | 1.04 ± 0.048 | 1.01 ± 0.058 | 1.02 ± 0.045 | 1.03 ± 0.04 | 1.04 ± 0.015 | 1.03 ± 0.016 | 1.05 ± 0.055 | 1.05 ± 0.028 | 1.05 ± 0.012 | 0.9551 ± 0.0066 | 0.693 ± 0.032
4 | CC(C)N1CCN(Cc2cnc(-c3cc(-c4cccc5[nH]ccc45)cc4[nH]ncc34)o2)CC1 [Nemiralisib] | 1.05 ± 0.047 | 1.02 ± 0.033 | 1.06 ± 0.038 | 1.04 ± 0.011 | 1.04 ± 0.047 | 1.05 ± 0.04 | 1.042 ± 0.0068 | 0.994 ± 0.033 | 0.928 ± 0.012 | 0.821 ± 0.029 | 0.658 ± 0.041
5 | CN1CCN(c2ccc3nc(-c4c(N)c5c(F)cccc5[nH]c4=O)[nH]c3c2)CC1 [Dovitinib] | 1.08 ± 0.053 | 1.09 ± 0.049 | 1.1 ± 0.037 | 1.14 ± 0.043 | 1.09 ± 0.063 | 1.12 ± 0.022 | 1.11 ± 0.015 | 1.07 ± 0.035 | 0.907 ± 0.017 | 0.654 ± 0.021 | 0.407 ± 0.0099
6 | COc1c(OCCCN2CCOCC2)ccc2c1N=C(NC(=O)c1cnc(N)nc1)N1CCN=C21 [Copanlisib] | 1.05 ± 0.059 | 0.995 ± 0.035 | 0.964 ± 0.032 | 0.814 ± 0.035 | 0.744 ± 0.042 | 0.629 ± 0.014 | 0.539 ± 0.018 | 0.454 ± 0.017 | 0.365 ± 0.02 | 0.296 ± 0.014 | 0.302 ± 0.011
7 | CNC(=O)c1ccc(-c2cnc3ncc(Cc4ccc5ncccc5c4)n3n2)cc1F [Capmatinib] | 1.02 ± 0.019 | 1 ± 0.07 | 0.987 ± 0.015 | 0.882 ± 0.031 | 0.617 ± 0.047 | 0.536 ± 0.0061 | 0.532 ± 0.0098 | 0.53 ± 0.013 | 0.512 ± 0.012 | 0.496 ± 0.017 | 0.5154 ± 0.005
8 | Cn1cc(-c2cc3c(N4CCN(c5ncc([C@@](C)(N)c6ccc(F)cc6)cn5)CC4)ncnn3c2)cn1 [Avapritinib] | 0.9488 ± 0.004 | 0.959 ± 0.072 | 0.999 ± 0.047 | 0.989 ± 0.049 | 0.973 ± 0.061 | 0.978 ± 0.023 | 0.9338 ± 0.0068 | 0.911 ± 0.012 | 0.877 ± 0.03 | 0.7843 ± 0.0066 | 0.829 ± 0.026
9 | CCCS(=O)(=O)Nc1ccc(F)c(C(=O)c2c[nH]c3ncc(-c4ccc(Cl)cc4)cc23)c1F [Vemurafenib] | 0.994 ± 0.053 | 0.988 ± 0.079 | 1.01 ± 0.081 | 1.06 ± 0.053 | 1.03 ± 0.028 | 0.979 ± 0.06 | 1.02 ± 0.013 | 0.959 ± 0.01 | 0.855 ± 0.033 | 0.667 ± 0.018 | 0.697 ± 0.1
10 | CC1(C)CNc2cc(NC(=O)c3cccnc3NCc3ccncc3)ccc21 [Motesanib] | 1.04 ± 0.042 | 1.02 ± 0.013 | 1.024 ± 0.0066 | 1.02 ± 0.016 | 1.06 ± 0.025 | 1.03 ± 0.033 | 1.02 ± 0.04 | 1.04 ± 0.027 | 0.99 ± 0.037 | 0.986 ± 0.017 | 0.925 ± 0.02
11 | C=CC(=O)Nc1cccc(Oc2nc(Nc3ccc(N4CCN(C)CC4)cc3)nc3ccsc23)c1 [Olmutinib] | 1.06 ± 0.047 | 1.08 ± 0.013 | 1.07 ± 0.044 | 1.076 ± 0.006 | 1.09 ± 0.029 | 1.06 ± 0.015 | 1.08 ± 0.013 | 1.05 ± 0.04 | 0.976 ± 0.033 | 0.843 ± 0.016 | 0.113 ± 0.03
12 | COc1cc2nccc(Oc3ccc(NC(=O)Nc4cc(C)on4)c(Cl)c3)c2cc1OC [Tivozanib] | 1.01 ± 0.022 | 0.999 ± 0.029 | 1.05 ± 0.04 | 1.05 ± 0.037 | 1.03 ± 0.038 | 0.9926 ± 0.0016 | 0.989 ± 0.036 | 1.08 ± 0.044 | 1.16 ± 0.043 | 0.908 ± 0.058 | 0.462 ± 0.015
13 | CNC(=O)c1cc(Oc2ccc(NC(=O)Nc3ccc(Cl)c(C(F)(F)F)c3)c(F)c2)ccn1 [Regorafenib] | 1.12 ± 0.046 | 1.11 ± 0.018 | 1.12 ± 0.082 | 1.11 ± 0.03 | 1.17 ± 0.053 | 1.08 ± 0.073 | 1.11 ± 0.079 | 1.05 ± 0.036 | 0.938 ± 0.066 | 0.719 ± 0.035 | 0.0852 ± 0.017
14 | Cc1ccc(F)c(NC(=O)Nc2ccc(-c3cccc4[nH]nc(N)c34)cc2)c1 [Linifanib] | 0.97 ± 0.011 | 1 ± 0.02 | 1.02 ± 0.022 | 1.01 ± 0.038 | 1.03 ± 0.037 | 1.01 ± 0.041 | 1.02 ± 0.05 | 1.04 ± 0.059 | 1.099 ± 0.0016 | 1.05 ± 0.058 | 1.06 ± 0.075
15 | Cc1cnc(Nc2ccc(OCCN3CCCC3)cc2)nc1Nc1cccc(S(=O)(=O)NC(C)(C)C)c1 [Fedratinib] | 1.01 ± 0.035 | 1 ± 0.068 | 1.04 ± 0.041 | 1.08 ± 0.062 | 1.04 ± 0.012 | 1.01 ± 0.042 | 0.99 ± 0.018 | 0.904 ± 0.034 | 0.7315 ± 0.0026 | 0.407 ± 0.011 | 0.0111 ± 0.0012
16 | C=CC(=O)N1CCC([C@@H]2CCNc3c(C(N)=O)c(-c4ccc(Oc5ccccc5)cc4)nn32)CC1 [Zanubrutinib] | 0.996 ± 0.023 | 1.04 ± 0.055 | 1.03 ± 0.05 | 1.051 ± 0.0069 | 1.01 ± 0.06 | 1.05 ± 0.015 | 1.03 ± 0.025 | 1.08 ± 0.021 | 1.06 ± 0.012 | 1.07 ± 0.012 | 1.05 ± 0.04
17 | CN1CCC(COc2cnc(-c3cccc(Cn4nc(-c5cccc(C#N)c5)ccc4=O)c3)nc2)CC1 [Tepotinib] | 1.06 ± 0.027 | 1.05 ± 0.022 | 1.01 ± 0.037 | 1.05 ± 0.039 | 1 ± 0.047 | 0.833 ± 0.017 | 0.597 ± 0.019 | 0.526 ± 0.0067 | 0.489 ± 0.0072 | 0.461 ± 0.02 | 0.361 ± 0.028
18 | Cc1nc(NC(=O)N2CCC[C@H]2C(N)=O)sc1-c1ccnc(C(C)(C)C(F)(F)F)c1 [Alpelisib] | 1.02 ± 0.024 | 1.04 ± 0.048 | 1 ± 0.063 | 1.01 ± 0.022 | 0.967 ± 0.046 | 0.951 ± 0.048 | 0.889 ± 0.043 | 0.8312 ± 0.0082 | 0.749 ± 0.055 | 0.666 ± 0.025 | 0.54 ± 0.044
